{
  "source": "paper PMC12044326",
  "about": "(Clinical Pharmacology in Drug Development, 2025)",
  "key": {"UGT2B4": {"target": "T1, UGT2B4 (Homo sapiens, UniProt P06133)", "T1 sequence (P06133 24-528)": "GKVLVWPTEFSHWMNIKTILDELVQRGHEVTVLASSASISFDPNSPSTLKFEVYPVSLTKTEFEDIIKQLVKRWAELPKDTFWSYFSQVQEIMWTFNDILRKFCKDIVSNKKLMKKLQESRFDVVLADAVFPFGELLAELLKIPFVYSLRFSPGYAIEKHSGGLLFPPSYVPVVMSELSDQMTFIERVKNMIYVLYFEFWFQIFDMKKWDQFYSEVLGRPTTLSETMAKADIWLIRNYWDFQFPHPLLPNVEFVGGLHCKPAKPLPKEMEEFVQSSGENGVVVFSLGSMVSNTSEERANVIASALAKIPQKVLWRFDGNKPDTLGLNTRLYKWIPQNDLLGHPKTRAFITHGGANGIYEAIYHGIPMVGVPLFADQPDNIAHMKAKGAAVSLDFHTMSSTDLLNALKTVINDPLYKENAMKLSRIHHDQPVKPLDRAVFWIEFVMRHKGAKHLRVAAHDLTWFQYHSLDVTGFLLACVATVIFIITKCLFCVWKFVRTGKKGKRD", "set-up": "with alamethicin-pretreated HLMs (0.5 mg/mL); tissue Sekisui-XenoTech; host or cells: pooled human liver microsomes (200 donors)", "conditions": "predicted by combining in vitro phenotyping and human ADME data; cited from earlier work"}, "human hepatocytes": {"tested_on": "human hepatocytes", "conditions": "both, 10 μmol/L"}, "OATP1B3": {"target": "T2, OATP1B3 (Homo sapiens, UniProt Q9NPD5)", "T2 sequence (Q9NPD5 1-702)": "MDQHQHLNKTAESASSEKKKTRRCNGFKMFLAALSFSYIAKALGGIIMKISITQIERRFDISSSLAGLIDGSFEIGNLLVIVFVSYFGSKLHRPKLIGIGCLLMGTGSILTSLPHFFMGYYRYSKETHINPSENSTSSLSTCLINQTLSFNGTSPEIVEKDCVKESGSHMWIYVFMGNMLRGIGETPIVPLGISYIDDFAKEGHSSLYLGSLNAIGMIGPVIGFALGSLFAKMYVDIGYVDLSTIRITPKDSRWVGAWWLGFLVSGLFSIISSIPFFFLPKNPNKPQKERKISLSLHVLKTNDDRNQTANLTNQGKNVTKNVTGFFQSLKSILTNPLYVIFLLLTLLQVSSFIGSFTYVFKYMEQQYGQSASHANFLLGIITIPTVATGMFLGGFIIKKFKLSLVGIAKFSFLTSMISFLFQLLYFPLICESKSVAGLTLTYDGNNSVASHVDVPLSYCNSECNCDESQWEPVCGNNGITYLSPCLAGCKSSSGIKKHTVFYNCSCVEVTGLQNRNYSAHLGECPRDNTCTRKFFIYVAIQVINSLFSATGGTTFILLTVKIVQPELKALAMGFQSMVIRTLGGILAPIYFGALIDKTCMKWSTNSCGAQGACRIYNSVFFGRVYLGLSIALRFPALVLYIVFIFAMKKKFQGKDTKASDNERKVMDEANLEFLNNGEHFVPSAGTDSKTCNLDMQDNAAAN"}, "CYP1A2": {"tested_on": "CYP1A2", "conditions": "hepatocytes", "method": "respectively; XenoTech) were treated once daily for 3 consecutive days and cultured according\nto previously described methods.2-4 Each culture well was treated with supplemented modified Chee's medium (0.2 mL) containing 0.1% v/v d imethylsulfoxide (DM SO ; vehicle control),\nμmol/L) or 1 of 3 known human CYP enzyme inducers (omeprazole 50 μmol/L, phenobarbital\nCultures were visualized with a\nrepresentative well from each treatment group was photographed with a PAXcam 5 (MIS, Inc.\nVilla Park, IL, USA) digital camera to document morphological integrity.\nβ-mercaptoethanol (1:100), and the cell lysates were stored at −80°C. For each hepatocyte preparation, media from 3 wells per treatment group were aspirated, and 250 μL buf f er RLT was added to each well. The cell lysates were mixed by shaking (10 minutes at 800 rpm) and total RNA was isolated with a MagMAX-96 (Ambion/ Thermo Fisher Scientific) for Microarrays Kit using the RNeasy Mini Kit (Qiagen Inc., Germantown, MD, USA). The analysis of RNA integrity was carried out with the RNA 6000 Nano Assay Kit on an Agilent 2100 Bioanalyzer (Agilent Technologies, Inc., Santa Clara, CA, USA). […]\nprepared samples were stored at −20°C prior to analysis by quantitative real-time (qRT)- […]"}, "[1]": {"tested_on": "cholesterol 24‐hydroxylase (CH24H)", "conditions": "100, 200, and 300 mg BID, cited from earlier work"}, "P‐glycoprotein (P‐gp)": {"target": "T3, P‐glycoprotein (P‐gp) (Homo sapiens, UniProt P08183)", "T3 construct": "Caco-2 cells were obtained from American Type Culture Collection; host or cells: Caco-2 cell monolayers", "T3 sequence (P08183 whole entry)": "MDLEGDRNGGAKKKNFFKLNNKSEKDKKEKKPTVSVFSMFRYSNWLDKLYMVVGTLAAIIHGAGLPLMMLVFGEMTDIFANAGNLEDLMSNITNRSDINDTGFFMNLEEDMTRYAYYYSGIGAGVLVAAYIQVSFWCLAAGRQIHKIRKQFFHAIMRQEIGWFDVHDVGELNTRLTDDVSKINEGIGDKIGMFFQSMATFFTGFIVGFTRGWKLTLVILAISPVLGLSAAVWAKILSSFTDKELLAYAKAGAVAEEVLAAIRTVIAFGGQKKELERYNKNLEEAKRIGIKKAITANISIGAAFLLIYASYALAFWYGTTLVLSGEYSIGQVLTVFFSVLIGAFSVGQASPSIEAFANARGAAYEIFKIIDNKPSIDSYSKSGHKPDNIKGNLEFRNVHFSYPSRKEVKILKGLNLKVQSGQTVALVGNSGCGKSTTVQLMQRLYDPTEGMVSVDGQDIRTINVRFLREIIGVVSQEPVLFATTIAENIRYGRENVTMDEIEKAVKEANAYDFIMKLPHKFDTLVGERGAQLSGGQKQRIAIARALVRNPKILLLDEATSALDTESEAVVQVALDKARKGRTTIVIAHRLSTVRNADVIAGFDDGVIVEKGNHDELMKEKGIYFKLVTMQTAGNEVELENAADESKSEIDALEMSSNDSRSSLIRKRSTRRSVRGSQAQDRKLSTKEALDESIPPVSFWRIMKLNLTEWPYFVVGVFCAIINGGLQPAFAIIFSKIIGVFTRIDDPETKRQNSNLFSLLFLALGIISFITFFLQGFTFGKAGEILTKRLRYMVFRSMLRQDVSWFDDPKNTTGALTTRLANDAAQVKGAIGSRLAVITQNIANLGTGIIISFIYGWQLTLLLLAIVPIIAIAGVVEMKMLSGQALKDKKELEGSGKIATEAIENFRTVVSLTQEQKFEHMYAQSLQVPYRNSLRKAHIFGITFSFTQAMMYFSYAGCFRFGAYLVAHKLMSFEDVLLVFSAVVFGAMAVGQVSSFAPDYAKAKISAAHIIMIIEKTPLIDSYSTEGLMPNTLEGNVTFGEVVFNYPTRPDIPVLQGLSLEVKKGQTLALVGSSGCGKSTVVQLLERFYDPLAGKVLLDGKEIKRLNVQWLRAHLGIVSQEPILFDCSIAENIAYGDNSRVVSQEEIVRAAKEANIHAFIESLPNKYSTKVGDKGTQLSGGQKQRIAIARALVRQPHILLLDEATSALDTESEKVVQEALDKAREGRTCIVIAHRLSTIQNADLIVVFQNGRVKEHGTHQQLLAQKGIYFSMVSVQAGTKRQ", "assay_type": "in vitro ADME", "description": "(§1) Prior to the experiments,\n(§2) The cells were cultured at […]\n(§3) measuring the trans-epithelial electrical resistance (TEER) value. The TEER values of cell […]\n(§4) The volumes of the replaced […]\n(§5) shaker at 37°C until use.\n(§6) Apical to Basal Transport (A to B).\n(§7) (soticlestat or quinidine) were added.\n(§8) After incubation for 1 hour, 100 μL […]\n(§9) radioactivity using an LSC. […]\n(§10) collected and measured for the radioactivity using an LSC.\n(§11) Basal to Apical Transport (B to A).\n(§12) (soticlestat or quinidine) were added. […] Then […]\n(§13) cells were incubated at 37°C.\n(§14) HBSS solution were added to the apical side."}, "P‐gp": {"target": "T4, P‐gp (Homo sapiens, UniProt P08183)", "T4 construct": "Caco-2 cells were obtained from American Type Culture Collection; host or cells: Caco-2 cell monolayers", "T4 sequence (P08183 whole entry)": "as above", "assay_type": "in vitro ADME", "description": "as §1, §2, §3, §4, §5, §6, §7, §8, §9, §10, §11, §12, §13, §14"}, "[2]": {"set-up": "method as in earlier work", "conditions": "ref 7 of supplement, cited from earlier work"}, "physchem": {"assay": "physchem", "assay_type": "physicochemical", "source_text": "[…]. […] […]. […] […]"}, "[3]": {"conditions": "100 mg QD, Day 1, geometric mean"}, "[4]": {"conditions": "100 mg QD, Day 14, geometric mean"}, "[5]": {"conditions": "300 mg QD, Day 1, geometric mean"}, "[6]": {"conditions": "300 mg QD, Day 14, geometric mean"}, "[7]": {"conditions": "400 mg QD, Day 1, geometric mean"}, "[8]": {"conditions": "400 mg QD, Day 14, geometric mean"}},
  "note": "Like-named read-outs stand apart in the source and are kept apart here.",
  "data": [
    {"smiles": "O=C(c1cccnc1-c1ccncc1)N1CCC(O)(Cc2ccccc2)CC1", "note": "[Soticlestat]", "values": [
      {"measurement": "fm by UGT2B4", "setting": "UGT2B4", "result": 81.2, "unit": "%"},
      {"measurement": "metabolized by glucuronidation", "setting": "human hepatocytes", "result": "~66", "unit": "%"},
      {"measurement": "oxidation via CYP3A", "setting": "human hepatocytes", "result": "~33", "unit": "%"},
      {"measurement": "inhibition of OATP1B3", "setting": "OATP1B3", "result": "did not demonstrate clinically relevant inhibition"},
      {"measurement": "induction of CYP1A2", "setting": "CYP1A2", "result": "nor did soticlestat induce"},
      {"measurement": "24HC reduction", "setting": "[1]; steady state", "result": "≥ 60", "unit": "%"},
      {"measurement": "steady‐state enzyme occupancy", "setting": "[1]", "result": "≥ 65", "unit": "%"},
      {"measurement": "IC50", "setting": "P‐glycoprotein (P‐gp)", "result": 81.1, "unit": "µM"},
      {"measurement": "Ki", "setting": "P‐glycoprotein (P‐gp)", "result": 80, "unit": "µM"},
      {"measurement": "substrate for P‐gp", "setting": "P‐gp", "result": "not a substrate"},
      {"measurement": "AUC0-24 observed", "setting": "[2]; [3]", "result": 422, "unit": "ng·h/mL"},
      {"measurement": "Cmax observed", "setting": "[2]; [3]", "result": 419, "unit": "ng/mL"},
      {"measurement": "tmax observed", "setting": "[2]; 100 mg QD, Day 1, median", "result": 25.2, "unit": "min"},
      {"measurement": "AUCtau observed", "setting": "[2]; [4]", "result": 443, "unit": "ng·h/mL"},
      {"measurement": "Cmax observed", "setting": "[2]; [4]", "result": 469, "unit": "ng/mL"},
      {"measurement": "tmax observed", "setting": "[2]; 100 mg QD, Day 14, median", "result": 19.8, "unit": "min"},
      {"measurement": "AUC0-24 observed", "setting": "[2]; [5]", "result": 1798, "unit": "ng·h/mL"},
      {"measurement": "Cmax observed", "setting": "[2]; [5]", "result": 1729, "unit": "ng/mL"},
      {"measurement": "tmax observed", "setting": "[2]; 300 mg QD, Day 1, median", "result": 25.2, "unit": "min"},
      {"measurement": "AUCtau observed", "setting": "[2]; [6]", "result": 2497, "unit": "ng·h/mL"},
      {"measurement": "Cmax observed", "setting": "[2]; [6]", "result": 2866, "unit": "ng/mL"},
      {"measurement": "tmax observed", "setting": "[2]; 300 mg QD, Day 14, median", "result": 19.8, "unit": "min"},
      {"measurement": "AUC0-24 observed", "setting": "[2]; [7]", "result": 2283, "unit": "ng·h/mL"},
      {"measurement": "Cmax observed", "setting": "[2]; [7]", "result": 2374, "unit": "ng/mL"},
      {"measurement": "AUCtau observed", "setting": "[2]; [8]", "result": 2605, "unit": "ng·h/mL"},
      {"measurement": "Cmax observed", "setting": "[2]; [8]", "result": 2709, "unit": "ng/mL"},
      {"measurement": "logP", "setting": "physchem", "result": 1.4},
      {"measurement": "pKa", "setting": "physchem", "result": 3.37},
      {"measurement": "Compound type", "setting": "physchem; PBPK input", "result": "Monoprotic base"}
    ]}
  ]
}
